Results from PubChem BioAssay (NCI).
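All cell lines were grown in 96-well plates and treated with compound for 48 hours. TGI denotes the concentration required for complete inhibition of growth.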

Columns and labels:
Experiment in all cases: NCI tumour cell line growth inhibition, 48 h
786-0 renal = tested on: 786-0 renal
A498 renal = tested on: A498 renal
A549 NSCLC = tested on: A549 NSCLC
ACHN renal = tested on: ACHN renal
BT-549 breast = tested on: BT-549 breast
CAKI-1 renal = tested on: CAKI-1 renal
CCRF-CEM leukemia = tested on: CCRF-CEM leukemia
COLO 205 colon = tested on: COLO 205 colon
DU-145 prostate = tested on: DU-145 prostate
EKVX NSCLC = tested on: EKVX NSCLC
HCC-2998 colon = tested on: HCC-2998 colon
HCT-116 colon = tested on: HCT-116 colon
HCT-15 colon = tested on: HCT-15 colon
HL-60(TB) leukemia = tested on: HL-60(TB) leukemia
HOP-62 NSCLC = tested on: HOP-62 NSCLC
HOP-92 NSCLC = tested on: HOP-92 NSCLC
HS 578T breast = tested on: HS 578T breast
HT29 colon = tested on: HT29 colon
IGROV1 ovarian = tested on: IGROV1 ovarian
K-562 leukemia = tested on: K-562 leukemia
KM12 colon = tested on: KM12 colon
LOX IMVI melanoma = tested on: LOX IMVI melanoma
M14 melanoma = tested on: M14 melanoma
MCF7 breast = tested on: MCF7 breast
MDA-MB-231 breast = tested on: MDA-MB-231 breast
MDA-MB-435 = tested on: MDA-MB-435
MDA-N = tested on: MDA-N
MOLT-4 leukemia = tested on: MOLT-4 leukemia
NCI-H226 lung = tested on: NCI-H226 lung
NCI-H23 lung = tested on: NCI-H23 lung
NCI-H460 lung = tested on: NCI-H460 lung
NCI-H522 lung = tested on: NCI-H522 lung
NCI/ADR-RES ovarian = tested on: NCI/ADR-RES ovarian
OVCAR-3 ovarian = tested on: OVCAR-3 ovarian
OVCAR-4 ovarian = tested on: OVCAR-4 ovarian
OVCAR-5 ovarian = tested on: OVCAR-5 ovarian
OVCAR-8 ovarian = tested on: OVCAR-8 ovarian
PC-3 prostate = tested on: PC-3 prostate
RPMI-8226 leukemia = tested on: RPMI-8226 leukemia
RXF 393 renal = tested on: RXF 393 renal
SF-268 CNS = tested on: SF-268 CNS
SF-295 CNS = tested on: SF-295 CNS
SF-539 CNS = tested on: SF-539 CNS
SK-MEL-2 melanoma = tested on: SK-MEL-2 melanoma
SK-MEL-28 melanoma = tested on: SK-MEL-28 melanoma
SK-MEL-5 melanoma = tested on: SK-MEL-5 melanoma
SK-OV-3 ovarian = tested on: SK-OV-3 ovarian
SN12C renal = tested on: SN12C renal
SNB-19 CNS = tested on: SNB-19 CNS
SNB-75 CNS = tested on: SNB-75 CNS
SR leukemia = tested on: SR leukemia
SW-620 colon = tested on: SW-620 colon
T-47D breast = tested on: T-47D breast
TK-10 renal = tested on: TK-10 renal
U251 CNS = tested on: U251 CNS
UACC-257 melanoma = tested on: UACC-257 melanoma
UACC-62 melanoma = tested on: UACC-62 melanoma
UO-31 renal = tested on: UO-31 renal

## Cc1ccc(N=C2C(c3ccccc3)=C(SC3=C(c4ccccc4)C(=Nc4ccc(C)cc4)c4ccccc43)c3ccccc32)cc1
786-0 renal
  TGI: 22.4 µM
A498 renal
  TGI: 33.5 µM
A549 NSCLC
  TGI: > 100 µM
ACHN renal
  TGI: 18.3 µM
BT-549 breast
  TGI: > 62.8 µM
CAKI-1 renal
  TGI: 65.6 µM
CCRF-CEM leukemia
  TGI: > 100 µM
COLO 205 colon
  TGI: > 100 µM
DU-145 prostate
  TGI: > 100 µM
EKVX NSCLC
  TGI: 43.9 µM
HCC-2998 colon
  TGI: > 54.1 µM
HCT-116 colon
  TGI: > 100 µM
HCT-15 colon
  TGI: > 100 µM
HL-60(TB) leukemia
  TGI: 17.8 µM
HOP-62 NSCLC
  TGI: 22.9 µM
HOP-92 NSCLC
  TGI: 33.2 µM
HS 578T breast
  TGI: 22.9 µM
HT29 colon
  TGI: > 48.9 µM
IGROV1 ovarian
  TGI: 45.5 µM
K-562 leukemia
  TGI: > 100 µM
KM12 colon
  TGI: > 100 µM
LOX IMVI melanoma
  TGI: > 100 µM
M14 melanoma
  TGI: > 100 µM
MCF7 breast
  TGI: > 100 µM
MDA-MB-231 breast
  TGI: 38.7 µM
MDA-MB-435
  TGI: > 100 µM
MDA-N
  TGI: > 100 µM
MOLT-4 leukemia
  TGI: > 100 µM
NCI-H226 lung
  TGI: > 63.1 µM
NCI-H23 lung
  TGI: 41.6 µM
NCI-H460 lung
  TGI: 36.3 µM
NCI-H522 lung
  TGI: > 100 µM
NCI/ADR-RES ovarian
  TGI: > 100 µM
OVCAR-3 ovarian
  TGI: > 100 µM
OVCAR-4 ovarian
  TGI: 17.2 µM
OVCAR-5 ovarian
  TGI: > 100 µM
OVCAR-8 ovarian
  TGI: 24.7 µM
PC-3 prostate
  TGI: > 100 µM
RPMI-8226 leukemia
  TGI: > 100 µM
RXF 393 renal
  TGI: 27.9 µM
SF-268 CNS
  TGI: 18.8 µM
SF-295 CNS
  TGI: 27.4 µM
SF-539 CNS
  TGI: 24.6 µM
SK-MEL-2 melanoma
  TGI: > 78.7 µM
SK-MEL-28 melanoma
  TGI: > 100 µM
SK-MEL-5 melanoma
  TGI: > 100 µM
SK-OV-3 ovarian
  TGI: 35.4 µM
SN12C renal
  TGI: 77.1 µM
SNB-19 CNS
  TGI: 17.1 µM
SNB-75 CNS
  TGI: 22.2 µM
SR leukemia
  TGI: > 100 µM
SW-620 colon
  TGI: > 100 µM
T-47D breast
  TGI: > 100 µM
TK-10 renal
  TGI: > 100 µM
U251 CNS
  TGI: > 53.5 µM
UACC-257 melanoma
  TGI: > 100 µM
UACC-62 melanoma
  TGI: > 51.7 µM
UO-31 renal
  TGI: 33.3 µM
